In PMC5889666 (Proceedings of the National Academy of Sciences of the …, 2018):

Legend:
FadD = target: T1, FadD (Escherichia coli, UniProt P69451); test: in vitro acyl-CoA synthesis, product by LC-MS; format: biochemical
T1 sequence (P69451 1-561): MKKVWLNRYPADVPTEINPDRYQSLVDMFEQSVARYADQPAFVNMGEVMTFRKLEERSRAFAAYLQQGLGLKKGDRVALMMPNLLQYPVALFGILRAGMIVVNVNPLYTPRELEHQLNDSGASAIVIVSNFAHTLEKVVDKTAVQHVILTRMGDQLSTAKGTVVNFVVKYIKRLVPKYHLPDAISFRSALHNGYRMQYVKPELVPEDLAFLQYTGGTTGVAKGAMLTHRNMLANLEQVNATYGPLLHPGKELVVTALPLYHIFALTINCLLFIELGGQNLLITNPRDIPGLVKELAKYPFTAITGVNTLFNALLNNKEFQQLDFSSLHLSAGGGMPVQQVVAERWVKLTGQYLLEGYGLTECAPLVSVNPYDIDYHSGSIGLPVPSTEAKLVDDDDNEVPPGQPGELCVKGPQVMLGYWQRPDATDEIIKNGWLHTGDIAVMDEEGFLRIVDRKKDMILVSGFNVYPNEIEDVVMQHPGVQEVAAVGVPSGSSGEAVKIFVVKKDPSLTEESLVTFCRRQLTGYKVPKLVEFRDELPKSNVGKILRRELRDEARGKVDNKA

PlsB = target: T2, PlsB (Escherichia coli, UniProt P0A7A7); test: in vitro lyso-phosphatidic acid synthesis, product by LC-MS; format: biochemical; conditions: co-substrate acyl-CoA made from oleic acid and CoA by FadD
T2 sequence (P0A7A7 2-807): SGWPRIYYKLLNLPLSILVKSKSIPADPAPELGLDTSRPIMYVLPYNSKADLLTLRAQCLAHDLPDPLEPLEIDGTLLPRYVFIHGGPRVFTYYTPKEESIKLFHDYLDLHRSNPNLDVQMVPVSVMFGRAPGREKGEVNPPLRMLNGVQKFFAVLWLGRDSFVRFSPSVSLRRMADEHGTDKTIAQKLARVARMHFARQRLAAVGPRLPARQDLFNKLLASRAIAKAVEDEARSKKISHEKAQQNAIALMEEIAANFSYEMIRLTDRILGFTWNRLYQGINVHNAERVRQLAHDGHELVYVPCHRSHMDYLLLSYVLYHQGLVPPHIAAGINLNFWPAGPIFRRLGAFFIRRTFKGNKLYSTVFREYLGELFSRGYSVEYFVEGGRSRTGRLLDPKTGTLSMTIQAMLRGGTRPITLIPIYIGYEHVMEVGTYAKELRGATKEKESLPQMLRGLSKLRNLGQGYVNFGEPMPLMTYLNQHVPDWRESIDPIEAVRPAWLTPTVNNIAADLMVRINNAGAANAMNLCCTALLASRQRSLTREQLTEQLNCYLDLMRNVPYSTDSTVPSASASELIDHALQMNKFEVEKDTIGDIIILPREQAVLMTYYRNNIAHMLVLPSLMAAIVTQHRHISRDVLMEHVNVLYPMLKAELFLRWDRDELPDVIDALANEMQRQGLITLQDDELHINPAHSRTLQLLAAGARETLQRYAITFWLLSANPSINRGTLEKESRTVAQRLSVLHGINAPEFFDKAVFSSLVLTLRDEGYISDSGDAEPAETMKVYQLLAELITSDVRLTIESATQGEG

purified protein [1] = substrate: O=P(O)(O)OC[C@@H](O)CO; test: purified protein; conditions: co-substrate GGPP
purified protein [2] = substrate: O=P(O)(O)OC[C@H](O)CO; test: purified protein; conditions: co-substrate GGPP

Q: With `CC(C)(COP(=O)(O)OP(=O)(O)OC[C@H]1O[C@@H](n2cnc3c(N)ncnc32)[C@H](O)[C@@H]1OP(=O)(O)O)[C@@H](O)C(=O)NCCC(=O)NCCS` [CoA] as the molecule, how does the “in vitro acyl-CoA synthesis, product by LC-MS” value (FadD; co-substrate oleic acid) read?
A: The value was “in vitro condensation of oleic acid and CoA to yield acyl-CoA”.

Q: Which “in vitro lyso-phosphatidic acid synthesis, product by LC-MS” value (PlsB) does the source give for `O=P(O)(O)OC[C@H](O)CO` [G3P] here?
A: Its value is “LPA synthesis was observed only in the presence of G3P”.

Q: With `CCCCCCCC/C=C\CCCCCCCC(=O)O` [oleic acid] as the molecule, how does the “in vitro acyl-CoA synthesis, product by LC-MS” value (FadD; co-substrate CoA) read?
A: The value was “in vitro condensation of oleic acid and CoA to yield acyl-CoA”.

B1: GGGPS (Methanococcus maripaludis S2) (protein)
chain: MQIKIGEIESKLNKIIEEEGAAYFVLIDPDEKNYREIANHVKDYADAIIIGGSIGIINLDEVTKDIKEITGLPIILFPGNVDGVTKEADAVFFMSLMNSKNTYWNMTAPTLGALTIKKYGLETLPMAYLGIEPISKTAVGFVGEVNEIPQKKPEIAGLYSLSASYFGMRWAYLEAGSGAEYPVSNEMVGISKKLSGINIIVGGGIRTPEVAYEKVMSGADVIVTGTLTEKDPQAVVEMKKAIKKAGLDKLKMLSKK
Q: Which Km (purified protein [1]) does the source give for B1 here?
A: The Km was 5.8 ± 1.6 µM.

Q: And the Km (purified protein [2])?
A: The Km was 46.7 ± 6 µM.
